Data: patent US20250352539A1, “COMBINATION THERAPY FOR TREATING CANCER” (AstraZeneca AB, priority 2022, published 2025)

Assays:
Format in all cases: cell-based
[1] = system: NCI-H1650; experiment: 10-day Cell Titre Glo combination screen; settings: Homo sapiens, NCI-H1650, NCI-H1650 lung; monotherapy; read-out: mono AC50
Excerpt: (§1) The Highest Single Agent (HSA) model is used to determine a combination's synergy score (and is based simply on the intuition that if a combination's effect exceeds the effect level of each of its constituents, there must be some combination interaction). Mathematically, the HSA model describes simple superposition of the single agent curves:
(§2) where CX,Y are the concentrations of the X and Y compound, and IX and IY are inhibitions of the single agents at CX,Y. It is also useful to calculate a volume score (HSA Volume) between the data and the HSA surface to characterise the overall strength of combination effects. Empirically derived combination matrices are compared to their respective HSA additivity models constructed from experimentally collected single agent dose response curves. Summation of this excess additivity across the dose response matrix is referred to HSA Volume.
(§3) Potency shifting can also be scored using combination index (CI). For a chosen iso-effect level (ICut), CI is calculated as: […]
(§4) where (CX/ECX) for a particular data point is the ratio of the X compound's measured concentration to its effective concentration at the chosen effect level. The CI is a rough estimate of how much drug was needed in combination relative to the single agent doses required to achieve the chosen effect level. CI values in the range of 0.5-0.7 are typical for in vitro measurements of current clinical combinations. The CI error (σCI) is calculated using standard error propagation through the CI calculation based on the isobologram errors.
(§5) This combination screen was a 10-day assay using Cell Titre Glo as the readout for viability.
(§6) The assay was performed in 384 well plates, with 1 cell line and 4 drug-drug combinations per plate dosed in a 6×6 matrix. A day zero reading was measured to determine growth inhibition. GenedataScreener was used to input the raw values for every well, and the software was programmed to normalise the values to the day zero and DMSO control values.
(§7) The CellTiter-Glo® Luminescent Cell Viability Assay is a homogeneous method to determine the number of viable cells in culture based on quantitation of the ATP present, which signals the presence of metabolically active cells. It relies on the properties of a proprietary thermostable luciferase (Ultra-Glo™ Recombinant Luciferase), which generates a stable “glow-type” luminescent signal and improves performance across a wide range of assay conditions.
(§8) The following information was reported: Synergy scores (HSA); combination index values; AC50 (half-maximal activity concentration) monotherapy values.

[2] = system: NCI-H322; experiment: 10-day Cell Titre Glo combination screen; settings: NCI-H322, NCI-H322 lung; monotherapy; read-out: mono AC50
Excerpt: as §1, §2, §3, §4, §5, §6, §7, §8

[3] = system: DMS53; experiment: 10-day Cell Titre Glo combination screen; settings: Homo sapiens, DMS-53; DMS53 lung; monotherapy; read-out: mono AC50
Excerpt: as §1, §2, §3, §4, §5, §6, §7, §8

[4] = system: NCI-H2009; experiment: 10-day Cell Titre Glo combination screen; settings: Homo sapiens; NCI-H2009 lung; monotherapy; read-out: mono AC50
Excerpt: as §1, §2, §3, §4, §5, §6, §7, §8

[5] = system: NCI-H1573; experiment: 10-day Cell Titre Glo combination screen; settings: Homo sapiens, NCI-H1573, 240 h, NCI-H1573 lung; monotherapy; read-out: mono AC50
Excerpt: as §1, §2, §3, §4, §5, §6, §7, §8

[6] = system: PC-9; experiment: 10-day Cell Titre Glo combination screen; settings: Homo sapiens; PC-9 lung; monotherapy; read-out: mono AC50
Excerpt: as §1, §2, §3, §4, §5, §6, §7, §8

[7] = system: HCC15; experiment: 10-day Cell Titre Glo combination screen; settings: HCC15 lung; monotherapy; read-out: mono AC50
Excerpt: as §1, §2, §3, §4, §5, §6, §7, §8

[8] = system: DU4475; experiment: 10-day Cell Titre Glo combination screen; settings: Homo sapiens, DU-4475; DU4475 breast; monotherapy; read-out: mono AC50
Excerpt: as §1, §2, §3, §4, §5, §6, §7, §8

[9] = system: NCI-H1792; experiment: 10-day Cell Titre Glo combination screen; settings: Homo sapiens; NCI-H1792 lung; monotherapy; read-out: mono AC50
Excerpt: as §1, §2, §3, §4, §5, §6, §7, §8

[10] = system: HCC1395; experiment: 10-day Cell Titre Glo combination screen; settings: Homo sapiens; HCC1395 breast; monotherapy; read-out: mono AC50
Excerpt: as §1, §2, §3, §4, §5, §6, §7, §8

[11] = system: NCI-H23; experiment: 10-day Cell Titre Glo combination screen; settings: Homo sapiens; NCI-H23 lung; monotherapy; read-out: mono AC50
Excerpt: as §1, §2, §3, §4, §5, §6, §7, §8

[12] = system: NCI-H1666; experiment: 10-day Cell Titre Glo combination screen; settings: Homo sapiens; NCI-H1666 lung; monotherapy; read-out: mono AC50
Excerpt: as §1, §2, §3, §4, §5, §6, §7, §8

[13] = system: MCF7 T52; experiment: 10-day Cell Titre Glo combination screen; settings: Homo sapiens; MCF7 T52 breast; monotherapy; read-out: mono AC50
Excerpt: as §1, §2, §3, §4, §5, §6, §7, §8

[14] = system: HCC1569; experiment: 10-day Cell Titre Glo combination screen; settings: Homo sapiens; HCC1569 breast; monotherapy; read-out: mono AC50
Excerpt: as §1, §2, §3, §4, §5, §6, §7, §8

[15] = system: SUM149PT 53BP1 WT (CNTR) cells; experiment: Clonogenic proliferation assay (14 days, SRB); settings: Homo sapiens; SUM149PT 53BP1 WT (CNTR); monotherapy; read-out: IC50, clonogenic growth
Description: (§9) Parental BRCA1 mutant SUM149PT breast cancer cell line (Elstrodt 2006) were obtained from AstraZeneca Cell Bank at Alderley Park, Macclesfield. Cells were routinely grown in Ham's F12 media containing 5% foetal calf serum, 1% glutamine (2 mM), 500 ng/ml hydrocortisone and 5% insulin. SUM149PT 53BP1 WT (CNTR) and 53BP1 null (KO) cell pools were generated by CRISPR-Cas9 technology. Short guide (sg) RNA targeting TP53BP1 on exon 10 (GAGTAGATCGGAAAGCATC) and a non-targeting CNTR guide (GAGTAGATCGGAAAGCATC) were designed and cloned into a lentiviral vector containing a mClover3 cassette for green fluorescence signal and hygromycin cassette for selection (pKLV2-U6gRNA (Bbsl)-EF1a-mClover3-T2A-HygR-W). Lentiviruses were generated from both KO and CNTR (sg) RNA and Cas9 (pKLVEF1a-Cas9Bsd-W) plasmids and parental cells were transduced first with Cas9 lentiviruses followed by blasticidin selection and then with KO and CNTR lentiviruses followed by hygromycin selection. Loss of 53BP1 was verified by analysing 53BP1 protein expression from whole cell lysates by western blotting (Novus, NB100-304, 1:1000 dilution).
(§10) Cells were seeded onto 6-well plates, three replicates per cell line, and 24 hours later the cells were dosed with AZD6738/AZD5305. For monotherapies the cells were dosed with a 6-point concentration response of AZD6738 (0 to 0.64 μM) or AZD5305 (0 to 1 μM). For combination treatments single dose of AZD5305 (10 nM) was used with a 5-point concentration response of AZD6738 (0 to 0.64 μM) for 53BP1 KO cells. Cells were grown for 14 days for colony formation without media changes. Cells were fixed with 10% TCA (Tricloroacetic acid). 14 days after dosing any formed colonies were stained with 0.057% SRB (sulforhodamine B acid), imaged with GelCount™ (Oxford OPTRONIX) at 600 dpi resolution and the stained colony growth intensity was measured using plate reader with OD @[…]. Dose response curves were generated and IC50 concentrations were calculated using GraphPad PRISM software.

[16] = system: SUM149PT 53BP1 KO cell pools; experiment: Clonogenic proliferation assay (14 days, SRB)
Description: as §9, §10

| SMILES | AC50 [1] [nM] | AC50 [2] [nM] | AC50 [3] [nM] | AC50 [4] [nM] | AC50 [5] [nM] | AC50 [6] [nM] | AC50 [7] [nM] | AC50 [8] [nM] | AC50 [9] [nM] | AC50 [10] [nM] | AC50 [11] [nM] | AC50 [12] [nM] | AC50 [13] [nM] | AC50 [14] [nM] | IC50 [15] [nM] | growth inhibition as monotherapy ([16]; 10 nM, cell pool not given) | sensitivity, clonogenic growth ([16]; SUM149PT 53BP1 KO, monotherapy) |
| --- | --- | --- | --- | --- | --- | --- | --- | --- | --- | --- | --- | --- | --- | --- | --- | --- | --- |
| CCc1cc2ccc(CN3CCN(c4ncc(C)n4C)CC3)cc2[nH]c1=O [AZ14114554, 7-((4-(1,5-dimethyl-1H-imidazol-2-yl)piperazin-1-yl)methyl)-3-ethylquinolin-2 (1H)-one] | 63.2 | 1.23 | 62.2 | 105 | 19.6 | 97100 | – | – | – | – | – | – | – | – | – | – | – |
| CCc1cc2ncc(CN3CCN(c4ccc(C(=O)NC)nc4)CC3)cc2[nH]c1=O [AZD5305, 5-{4-[(7-ethyl-6-oxo-5,6-dihydro-1,5-naphthyridin-3-yl)methyl]piperazin-1-yl}-N-methylpyridine-2-carboxamide] | – | – | – | – | 47.7 | – | 7.7 | 120 | 24.5 | 5.73 | 4.13 | 9.36 | 41.8 | 22100 | ~6 | does not show growth inhibition | completely resistant |
